Laboratory results as given in patent US10517889B2, “Modulators of SMAD7 expression” (Ionis Pharmaceuticals, Inc., priority 2017, dated 2019).
Strand notation (5' to 3'): a small letter for the sugar, then the base; units joined by * are phosphorothioate-linked, units joined directly phosphodiester-linked; [ ] holds rarer units or linkages, { } end groups; capitals alone tell only the bases. e = 2'-O-(2-methoxyethyl) (MOE); [5mC] = 5-methylcytosine; d = 2'-deoxy (DNA)

System: human SMAD7 mRNA
Test: Antisense inhibition of human SMAD7 mRNA expression in Hep3B cells by 5-10-5 MOE gapmers, single concentration, electroporation, RT-PCR (Example 1, Study 1 and 2)
Type: cell-based
Details: for % Inhibition: Study 2, electroporation with 15,000 nM antisense oligonucleotide; for % Inhibition of SMAD7 mRNA: electroporation with 15,000 nM antisense oligonucleotide (Study 2)
Summary of the method: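 Readout is percent SMAD7 mRNA inhibition versus untreated cells, measured by qRT-PCR (RTS5062) and corrected for total RNA by RIBOGREEN. Oligonucleotide, 5,000 nM or 15,000 nM, was delivered by electroporation into Hep3B cells at 20,000 per well. RNA was collected about 24 h later.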

[1] = electroporation, 15,000 nM antisense oligonucleotide (Study 2), 5-10-5 MOE gapmers targeting SEQ ID NO: 1 and 2
[2] = 5-10-5 MOE gapmers targeting SEQ ID NO: 1 and 2
[3] = electroporation, 5,000 nM, approximately 24 hours, relative to untreated control cells, gapmers targeting SEQ ID NO: 1 and 2
[4] = electroporation, 15,000 nM, approximately 24 hours, relative to untreated control cells, gapmers targeting SEQ ID NO: 1 and 2

Substance: 771738 (antisense eG*eA*eG*e[5mC]*eT*dT*d[5mC]*d[5mC]*dT*dA*dA*dG*dT*dA*d[5mC]*eT*eG*eT*eT*eA) [compound 771738]
- % inhibition of SMAD7 mRNA expression [1]: 14%

Substance: 771739 (antisense eT*eT*eT*eG*eA*dA*dA*dA*d[5mC]*d[5mC]*d[5mC]*dA*dA*d[5mC]*d[5mC]*e[5mC]*eT*eG*eG*eG) [compound 771739]
- % Inhibition [2]: 33%
- % inhibition of SMAD7 mRNA expression [3]: 22%

Substance: 771740 (antisense eG*e[5mC]*e[5mC]*eA*e[5mC]*dT*d[5mC]*d[5mC]*dT*dG*dA*d[5mC]*dT*d[5mC]*dA*e[5mC]*eG*e[5mC]*eA*eA) [compound 771740]
- % Inhibition [2]: 20%

Substance: 771741 (antisense eG*eG*eT*e[5mC]*eT*d[5mC]*dA*d[5mC]*d[5mC]*dT*dT*dA*dG*dG*d[5mC]*e[5mC]*eT*eG*eT*eG) [compound 771741]
- % inhibition of SMAD7 mRNA expression [4]: 53%

Substance: 771743 (antisense eG*e[5mC]*e[5mC]*eA*eT*dA*d[5mC]*d[5mC]*dT*d[5mC]*d[5mC]*dA*dT*d[5mC]*dT*e[5mC]*eT*e[5mC]*eA*e[5mC]) [compound 771743]
- % Inhibition [2]: 0%

Substance: 771744 (antisense eG*eG*e[5mC]*eT*eA*dT*dT*d[5mC]*d[5mC]*d[5mC]*dA*dA*dG*dA*dG*eT*e[5mC]*e[5mC]*eA*eG) [compound 771744]
- % Inhibition of SMAD7 mRNA [2]: 40%
- % inhibition of SMAD7 mRNA expression [1]: 23%

Substance: 771745 (antisense eG*eT*eG*eA*eA*dG*dA*dA*dG*d[5mC]*dA*dA*dA*dG*dT*eA*eT*eA*e[5mC]*e[5mC]) [compound 771745]
- % inhibition of SMAD7 mRNA expression [1]: 24%

Substance: 771746 (antisense eA*eA*eG*e[5mC]*e[5mC]*dG*dG*dG*d[5mC]*dA*dT*d[5mC]*dT*d[5mC]*dA*eG*eA*eG*e[5mC]*eA) [compound 771746]
- % inhibition of SMAD7 mRNA expression [1]: 22%

Substance: 771747 (antisense eG*eT*eG*eT*eG*dT*dT*dT*d[5mC]*dA*dA*dA*dG*dG*dA*eA*eA*eA*eG*e[5mC]) [compound 771747]
- % Inhibition [2]: 10%
- % inhibition of SMAD7 mRNA expression [3]: 2%

Substance: 771748 (antisense eA*e[5mC]*e[5mC]*e[5mC]*e[5mC]*d[5mC]*dA*d[5mC]*dA*dT*dT*dA*dA*dA*d[5mC]*eA*eT*eA*eA*eT) [compound 771748]
- % Inhibition [2]: 0%

Substance: 771749 (antisense eG*eA*eA*eA*eT*dG*dG*dA*dG*dT*dT*dA*d[5mC]*dT*dT*eG*eT*eT*eA*eA) [compound 771749]
- % inhibition of SMAD7 mRNA expression [4]: 29%

Substance: 771750 (antisense eG*eG*eA*e[5mC]*eA*dA*d[5mC]*dT*dT*dT*dT*d[5mC]*dA*dA*dG*eA*eA*e[5mC]*eT*e[5mC]) [compound 771750]
- % Inhibition [2]: 29%

Substance: 771751 (antisense eT*eG*eG*e[5mC]*e[5mC]*dA*dT*dG*d[5mC]*dT*dG*dG*d[5mC]*dA*dA*eA*eT*eA*eG*eG) [compound 771751]
- % Inhibition [2]: 25%

Substance: 771752 (antisense eA*eA*eT*eG*eT*d[5mC]*d[5mC]*d[5mC]*dT*dG*dT*dG*dG*dG*dT*eT*eT*e[5mC]*e[5mC]*eA) [compound 771752]
- % Inhibition of SMAD7 mRNA [2]: 3%
- % inhibition of SMAD7 mRNA expression [1]: 0%

Substance: 771753 (antisense eG*eT*e[5mC]*e[5mC]*eA*dT*dG*dA*dA*d[5mC]*d[5mC]*dA*d[5mC]*dA*dA*e[5mC]*eT*e[5mC]*eA*eT) [compound 771753]
- % inhibition of SMAD7 mRNA expression [1]: 50%

Substance: 771754 (antisense e[5mC]*e[5mC]*e[5mC]*eT*e[5mC]*dA*dG*dG*dT*dA*d[5mC]*dT*d[5mC]*dT*dG*e[5mC]*eA*e[5mC]*eA*eG) [compound 771754]
- % inhibition of SMAD7 mRNA expression [1]: 45%

Substance: 771755 (antisense eA*eA*eA*e[5mC]*eA*dT*dT*dT*dG*dG*d[5mC]*dA*d[5mC]*d[5mC]*d[5mC]*eA*eA*e[5mC]*eA*e[5mC]) [compound 771755]
- % Inhibition [2]: 35%
- % inhibition of SMAD7 mRNA expression [3]: 44%

Substance: 771756 (antisense e[5mC]*e[5mC]*eA*eG*eG*d[5mC]*dA*dA*d[5mC]*d[5mC]*d[5mC]*d[5mC]*dA*dG*dA*e[5mC]*e[5mC]*eT*eG*e[5mC]) [compound 771756]
- % Inhibition [2]: 11%

Substance: 771757 (antisense eT*e[5mC]*e[5mC]*e[5mC]*e[5mC]*dT*dT*dT*dT*dT*dT*dA*dA*dT*dT*eG*eA*eG*eG*eA) [compound 771757]
- % inhibition of SMAD7 mRNA expression [4]: 48%

Substance: 771758 (antisense eA*eT*eT*eA*e[5mC]*d[5mC]*dA*dG*dT*d[5mC]*d[5mC]*d[5mC]*d[5mC]*d[5mC]*dA*eT*eT*eA*e[5mC]*eG) [compound 771758]
- % Inhibition [2]: 0%

Substance: 771759 (antisense eG*e[5mC]*eA*eT*eT*dA*d[5mC]*d[5mC]*dA*dG*dT*d[5mC]*d[5mC]*d[5mC]*d[5mC]*e[5mC]*eA*eT*eT*eA) [compound 771759]
- % Inhibition [2]: 26%

Substance: 771760 (antisense eA*eT*e[5mC]*eT*eT*dA*d[5mC]*d[5mC]*dT*dG*dA*dA*dA*dG*d[5mC]*e[5mC]*e[5mC]*e[5mC]*e[5mC]*e[5mC]) [compound 771760]
- % Inhibition of SMAD7 mRNA [2]: 25%
- % inhibition of SMAD7 mRNA expression [1]: 3%

Substance: 771761 (antisense e[5mC]*e[5mC]*e[5mC]*e[5mC]*eA*dT*dT*d[5mC]*d[5mC]*dT*d[5mC]*d[5mC]*dA*dG*dT*e[5mC]*eT*eT*eT*eA) [compound 771761]
- % inhibition of SMAD7 mRNA expression [1]: 33%

Substance: 771763 (antisense e[5mC]*e[5mC]*e[5mC]*e[5mC]*eG*dT*d[5mC]*d[5mC]*dA*d[5mC]*dG*dG*dA*dA*d[5mC]*eG*eG*eA*eT*e[5mC]) [compound 771763]
- % Inhibition [2]: 45%
- % inhibition of SMAD7 mRNA expression [3]: 34%

Substance: 771764 (antisense eA*e[5mC]*eA*e[5mC]*eT*dT*d[5mC]*dA*d[5mC]*dA*d[5mC]*dA*d[5mC]*d[5mC]*dA*eA*eA*eG*e[5mC]*eA) [compound 771764]
- % Inhibition [2]: 20%

Substance: 771765 (antisense e[5mC]*e[5mC]*eA*eA*eG*d[5mC]*d[5mC]*dA*dG*dG*dA*dG*d[5mC]*dT*dG*e[5mC]*eT*eT*eA*eA) [compound 771765]
- % inhibition of SMAD7 mRNA expression [4]: 48%

Substance: 771766 (antisense e[5mC]*eT*eG*eA*eA*dG*d[5mC]*d[5mC]*d[5mC]*d[5mC]*d[5mC]*d[5mC]*dA*dA*dG*e[5mC]*e[5mC]*eA*eG*eG) [compound 771766]
- % Inhibition [2]: 5%

Substance: 771767 (antisense e[5mC]*e[5mC]*eT*eA*eA*dA*dG*dG*dT*dG*dG*dG*dT*d[5mC]*d[5mC]*eA*eT*eT*e[5mC]*e[5mC]) [compound 771767]
- % Inhibition [2]: 16%

Substance: 771768 (antisense eG*eT*eA*eT*eG*d[5mC]*dT*dT*dG*dG*dG*dA*dT*d[5mC]*dT*eG*eT*e[5mC]*eT*eT) [compound 771768]
- % Inhibition of SMAD7 mRNA [2]: 24%
- % inhibition of SMAD7 mRNA expression [1]: 11%

Substance: 771771 (antisense e[5mC]*eA*eG*e[5mC]*eT*d[5mC]*d[5mC]*dT*dA*d[5mC]*dT*dG*dT*dT*dG*eG*e[5mC]*eA*eG*eT) [compound 771771]
- % Inhibition [2]: 22%
- % inhibition of SMAD7 mRNA expression [3]: 63%

Substance: 771772 (antisense eT*e[5mC]*e[5mC]*eT*e[5mC]*dA*dG*dG*dA*dA*d[5mC]*dA*dA*d[5mC]*dA*eA*eT*eG*e[5mC]*eT) [compound 771772]
- % Inhibition [2]: 27%

Substance: 771774 (antisense eG*eA*eA*eA*eA*dA*d[5mC]*dA*dG*dG*dT*dA*dG*dA*dA*eA*eT*eA*eG*eG) [compound 771774]
- % Inhibition [2]: 14%

Substance: 771775 (antisense eA*eA*eT*eG*e[5mC]*d[5mC]*dA*dA*dA*dT*dG*d[5mC]*d[5mC]*d[5mC]*dA*eA*eA*eA*e[5mC]*eT) [compound 771775]
- % Inhibition [2]: 41%

Substance: 771779 (antisense eA*e[5mC]*eA*e[5mC]*eA*d[5mC]*dT*dG*d[5mC]*dT*dG*d[5mC]*d[5mC]*dT*dT*eT*eT*e[5mC]*eT*e[5mC]) [compound 771779]
- % Inhibition [2]: 33%
- % inhibition of SMAD7 mRNA expression [3]: 53%

Substance: 771780 (antisense eA*e[5mC]*eA*eA*eA*d[5mC]*d[5mC]*dT*dT*d[5mC]*d[5mC]*dG*dA*dA*dA*eG*eG*eA*e[5mC]*e[5mC]) [compound 771780]
- % Inhibition [2]: 20%

Substance: 771781 (antisense eA*eA*eA*eA*eA*dA*dA*dG*d[5mC]*d[5mC]*d[5mC]*dA*d[5mC]*d[5mC]*d[5mC]*eA*eT*e[5mC]*eG*eG) [compound 771781]
- % inhibition of SMAD7 mRNA expression [4]: 10%

Substance: 771783 (antisense e[5mC]*e[5mC]*e[5mC]*eT*eT*d[5mC]*dA*dG*dA*dG*dA*dG*dT*d[5mC]*dA*e[5mC]*eT*eG*e[5mC]*eT) [compound 771783]
- % Inhibition [2]: 49%

Substance: 771784 (antisense eT*eA*eA*eA*eT*d[5mC]*dA*dA*dG*dA*dG*d[5mC]*dT*dG*dA*eA*eA*eT*eT*e[5mC]) [compound 771784]
- % Inhibition of SMAD7 mRNA [2]: 1%
- % inhibition of SMAD7 mRNA expression [1]: 0%

Substance: 771785 (antisense eA*e[5mC]*eT*eT*eT*dG*dA*dA*dG*d[5mC]*d[5mC]*dT*dT*dT*dG*eG*eA*eA*eT*eT) [compound 771785]
- % inhibition of SMAD7 mRNA expression [1]: 12%

Substance: 771787 (antisense eA*eA*eG*eA*eA*dG*dA*dA*dG*dG*dA*dG*d[5mC]*dT*d[5mC]*eA*eA*eA*e[5mC]*eT) [compound 771787]
- % Inhibition [2]: 27%
- % inhibition of SMAD7 mRNA expression [3]: 0%

Substance: 771789 (antisense e[5mC]*e[5mC]*e[5mC]*eA*eA*dA*dA*d[5mC]*dA*dG*dT*dG*dT*dA*d[5mC]*e[5mC]*e[5mC]*eT*e[5mC]*e[5mC]) [compound 771789]
- % inhibition of SMAD7 mRNA expression [4]: 30%

Substance: 771790 (antisense e[5mC]*eA*eA*eA*eA*d[5mC]*dT*d[5mC]*dT*d[5mC]*dT*dG*d[5mC]*d[5mC]*d[5mC]*eT*eG*eG*eA*e[5mC]) [compound 771790]
- % Inhibition [2]: 36%
